# Read-outs that look alike come from different tables or passages of the source.
# Target: T1, human B-Raf (Homo sapiens, UniProt P15056)
# T1 construct: Flag; GST; made in house; host or cells: Sf9 insect cells (B-Raf); E. coli (MEK1-GST)
# Test: B-Raf Kinase to MEK1 ELISA
# Format: biochemical
# Details: for IC50: median, cpd concentrations from 10 μM to 30 nM in half log dilutions, read-out: Median IC50; for inhibition at 10 µM: read-out: % Inhib./10 uM
# From the text: TITLE: B-Raf Kinase to MEK1 ELISA
# PURPOSE: To discover B-Raf Kinase inhibitors that can inhibit growth of tumor cells which contain oncogenic forms of Receptor Tyrosine Kinases or K-Ras, or B-Raf kinase.
# Reagents: Flag/GST-tagged recombinant human B-Raf produced in Sf9 insect cells, human non-active Mek-1-GST (recombinant protein produced in E. coli); and a phospho-MEK1 specific poly-clonal Ab from Cell Signaling Technology (cat. #9121).
# B-Raf1 Kinase Assay Procedure:
# B-Raf-1 is used to phosphorylate GST-MEK1. MEK1 phosphorylation is measured by a phospho-specific antibody (from Cell Signaling Technology, cat. #9121) that detects phosphorylation of two serine residues at positions 217 and 221 on MEK1.
# B-Raf Assay Stock Solutions:
# 1. Assay Dilution Buffer (ADB): 20 mM MOPS, pH 7.2, 25 mM β-glycerol phosphate, 5 mM EGTA, 1 mM sodium orthovanadate, 1 mM dithiothreitol.
# 2. Magnesium/ATP Cocktail: 200 μM cold ATP and 40 mM magnesium chloride in ADB.
# 3. Active Kinase: Active B-Raf: used at ˜20 ng per assay point.
# 4. Non-active GST-MEK1: Use at 100 nM (50 nM final).
# 6. Anti-GST Ab (Pharmacia)
# 7. Anti-rabbit Ab/Europium conjugate (Wallac)
# 1. Add 25 μl of ADB containing B-Raf and Mek per assay (i.e. per well of a 96 well plate)
# 2. Add 25 μl of 0.2 mM ATP and 40 mM magnesium chloride in ADB.
# 3. Incubate for 60 minutes at RT in a shaking incubator.
# 4. Transfer this mixture to an anti-GST Ab coated 96 well plate (Nunc Immunosorb plates coated o/n with a-GST.
# 5. Incubate for 60 minutes at 30° C. in a shaking incubator
# 6. Wash 3× with TBST, add Anti-Phospho MEK1 (1:1000)
# 7. Incubate for 60 minutes at 30° C. in a shaking incubator
# 8. Wash 3× with TBST, add Anti-rabbit Ab/Europium conjugate (Wallac) (1:500)
# 9. Incubate for 60 minutes at 30° C. in a shaking incubator
# 10. Add 100 ul of Wallac Delfia Enhancement Solution and shake for 10 minutes.
# 11. Read plates in Wallac Victor model Plate Reader.
# 12. Collect data analyze in Excel for single point and IC50 determinations.
# Typically Raf-1 assay is run at cpd concentrations from 10 μM to 30 nM in half log dilutions. (% inhibition is determined for each cpd concentration)
# T1 sequence (P15056 whole entry): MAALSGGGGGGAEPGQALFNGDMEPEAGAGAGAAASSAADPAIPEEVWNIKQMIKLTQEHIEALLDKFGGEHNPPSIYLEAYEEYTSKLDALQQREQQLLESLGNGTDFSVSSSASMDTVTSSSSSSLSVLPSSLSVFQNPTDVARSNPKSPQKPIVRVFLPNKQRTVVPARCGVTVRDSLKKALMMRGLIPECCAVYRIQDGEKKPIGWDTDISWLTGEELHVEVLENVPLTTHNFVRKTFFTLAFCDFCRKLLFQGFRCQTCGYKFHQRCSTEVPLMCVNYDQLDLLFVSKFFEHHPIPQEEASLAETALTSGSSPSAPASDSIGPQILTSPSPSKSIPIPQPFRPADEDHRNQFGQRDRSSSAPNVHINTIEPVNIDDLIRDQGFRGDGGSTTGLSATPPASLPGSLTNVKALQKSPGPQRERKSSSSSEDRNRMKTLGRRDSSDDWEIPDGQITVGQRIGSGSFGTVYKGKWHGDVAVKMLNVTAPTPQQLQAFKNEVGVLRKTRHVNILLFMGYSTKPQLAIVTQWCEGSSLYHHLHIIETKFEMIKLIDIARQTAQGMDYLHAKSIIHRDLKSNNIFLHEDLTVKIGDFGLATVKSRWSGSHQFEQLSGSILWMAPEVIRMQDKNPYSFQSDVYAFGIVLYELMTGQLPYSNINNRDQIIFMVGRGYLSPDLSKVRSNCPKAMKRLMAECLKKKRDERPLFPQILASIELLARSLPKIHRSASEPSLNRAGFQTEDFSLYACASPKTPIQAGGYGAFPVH
IC50 [µM],inhibition at 10 µM [%],"inhibition at 10 µM (single point assay, 10 uM) [%]",Structure (SMILES)
0.34,81,–,"CCOC(=O)c1cnn2c(-c3cccc(NC(=O)Nc4ccc(Cl)c(Cl)c4)c3)ccnc12 [Example 40, ethyl 7-[3-({[(3,4-dichlorophenyl)amino]carbonyl}amino)phenyl]pyrazolo[1,5-a]pyrimidine-3-carboxylate]"
> 10,37,–,"CCOC(=O)c1cnn2c(-c3cccc(NC(=O)Nc4ccc(Br)cc4)c3)ccnc12 [Example 41, ethyl 7-[3-({[(4-bromophenyl)amino]carbonyl}amino)phenyl]pyrazolo[1,5-a]pyrimidine-3-carboxylate]"
3.53,70,–,"CCOC(=O)c1cnn2c(-c3cccc(NC(=O)Nc4ccc(C)c(C)c4)c3)ccnc12 [Example 42, ethyl 7-[3-({[(3,4-dimethylphenyl)amino]carbonyl}amino)phenyl]pyrazolo[1,5-a]pyrimidine-3-carboxylate]"
> 10,9,–,"CCOC(=O)c1cnn2c(-c3cccc(NC(=O)Nc4ccc(Cl)cc4C(F)(F)F)c3)ccnc12 [Example 43, ethyl 7-{3-[({[4-chloro-2-(trifluoromethyl)phenyl]amino}carbonyl)amino]phenyl}pyrazolo[1,5-a]pyrimidine-3-carboxylate]"
0.27,90,–,"CCOC(=O)c1cnn2c(-c3cccc(NC(=O)Nc4ccc(F)c(C(F)(F)F)c4)c3)ccnc12 [Example 44, ethyl 7-{3-[({[4-fluoro-3-(trifluoromethyl)phenyl]amino}carbonyl)amino]phenyl}pyrazolo[1,5-a]pyrimidine-3-carboxylate]"
–,56,–,"COCCNC(=O)c1cnn2c(-c3cccc(NC(=O)c4cccc(C(F)(F)F)c4)c3)ccnc12 [Example 45, N-(2-methoxyethyl)-7-(3-{[3-(trifluoromethyl)benzoyl]amino}phenyl)pyrazolo[1,5-a]pyrimidine-3-carboxamide]"
–,54,–,"CCCNC(=O)c1cnn2c(-c3cccc(NC(=O)c4cccc(C(F)(F)F)c4)c3)ccnc12 [Example 46, N-propyl-7-(3-{[3-(trifluoromethyl)benzoyl]amino}phenyl)pyrazolo[1,5-a]pyrimidine-3-carboxamide]"
> 10,35,–,"O=C(Nc1cccc(-c2ccnc3c(C(=O)Nc4cccnc4)cnn23)c1)c1cccc(C(F)(F)F)c1 [Example 47, N-pyridin-3-yl-7-(3-{[3-(trifluoromethyl)benzoyl]amino}phenyl)pyrazolo[1,5-a]pyrimidine-3-carboxamide]"
–,43,–,"O=C(Nc1cccc(-c2ccnc3c(C(=O)NCCN4CCCC4)cnn23)c1)c1cccc(C(F)(F)F)c1 [Example 48, N-(2-pyrrolidin-1-ylethyl)-7-(3-{[3-(trifluoromethyl)benzoyl]amino}phenyl)pyrazolo[1,5-a]pyrimidine-3-carboxamide]"
5.94,62,–,"CN(C)CCNC(=O)c1cnn2c(-c3cccc(NC(=O)c4cccc(C(F)(F)F)c4)c3)ccnc12 [Example 49, N-[2-(dimethylamino)ethyl]-7-(3-{[3-(trifluoromethyl)benzoyl]amino}phenyl)pyrazolo[1,5-a]pyrimidine-3-carboxamide]"
8,42,–,"CN1CCN(CCCNC(=O)c2cnn3c(-c4cccc(NC(=O)c5cccc(C(F)(F)F)c5)c4)ccnc23)CC1 [Example 50, N-[3-(4-methylpiperazin-1-yl)propyl]-7-(3-{[3-(trifluoromethyl)benzoyl]amino}phenyl)pyrazolo[1,5-a]pyrimidine-3-carboxamide]"
–,50,–,"CCNC(=O)c1cnn2c(-c3cccc(NC(=O)c4cccc(C(F)(F)F)c4)c3)ccnc12 [Example 51, N-ethyl-7-(3-{[3-(trifluoromethyl)benzoyl]amino}phenyl)pyrazolo[1,5-a]pyrimidine-3-carboxamide]"
8,60,–,"O=C(Nc1cccc(-c2ccnc3c(C(=O)NCCN4CCOCC4)cnn23)c1)c1cccc(C(F)(F)F)c1 [Example 52, N-(2-morpholin-4-ylethyl)-7-(3-{[3-(trifluoromethyl)benzoyl]amino}phenyl)pyrazolo[1,5-a]pyrimidine-3-carboxamide]"
5,55,–,"O=C(Nc1cccc(-c2ccnc3c(C(=O)NCCCN4CCOCC4)cnn23)c1)c1cccc(C(F)(F)F)c1 [Example 53, N-(3-morpholin-4-ylpropyl)-7-(3-{[3-(trifluoromethyl)benzoyl]amino}phenyl)pyrazolo[1,5-a]pyrimidine-3-carboxamide]"
> 10,32,–,"CN1CCCC1CCNC(=O)c1cnn2c(-c3cccc(NC(=O)c4cccc(C(F)(F)F)c4)c3)ccnc12 (centres unmarked) [Example 54, N-[2-(1-methylpyrrolidin-2-yl)ethyl]-7-(3-{[3-(trifluoromethyl)benzoyl]amino}phenyl)pyrazolo[1,5-a]pyrimidine-3-carboxamide]"
2.1,70,–,"O=C(Nc1cccc(-c2ccnc3c(C(=O)NCCCn4ccnc4)cnn23)c1)c1cccc(C(F)(F)F)c1 [Example 55, N-[3-(1H-imidazol-1-yl)propyl]-7-(3-{[3-(trifluoromethyl)benzoyl]amino}phenyl)pyrazolo[1,5-a]pyrimidine-3-carboxamide]"
1,60,–,"COCCCNC(=O)c1cnn2c(-c3cccc(NC(=O)c4cccc(C(F)(F)F)c4)c3)ccnc12 [Example 56, N-(3-methoxypropyl)-7-(3-{[3-(trifluoromethyl)benzoyl]amino}phenyl)pyrazolo[1,5-a]pyrimidine-3-carboxamide]"
1.64,51,–,"O=C(Nc1cccc(-c2ccnc3c(C(=O)NCc4ccccc4)cnn23)c1)c1cccc(C(F)(F)F)c1 [Example 57, N-benzyl-7-(3-{[3-(trifluoromethyl)benzoyl]amino}phenyl)pyrazolo[1,5-a]pyrimidine-3-carboxamide]"
> 10,4,–,"CCOC(=O)c1c(C)nn2c(-c3cccc(NC(=O)c4cccc(C(F)(F)F)c4)c3)ccnc12 [Example 58, Ethyl 2-methyl-7-(3-{[3-(trifluoromethyl)benzoyl]amino}phenyl)pyrazolo[1,5-a]pyrimidine-3-carboxylate]"
> 10,37,–,"O=C(Nc1cccc(-c2ccnc3c(-c4ccccn4)cnn23)c1)c1cccc(C(F)(F)F)c1 [Example 59, N-[3-(3-pyridin-2-ylpyrazolo[1,5-a]pyrimidin-7-yl)phenyl]-3-(trifluoromethyl)benzamide]"
> 10,1,–,"O=C(Nc1cccc(-c2ccnc3c(-c4nn[nH]n4)cnn23)c1)c1cccc(C(F)(F)F)c1 [Example 60, N-{3-[3-(2H-tetrazol-5-yl)pyrazolo[1,5-a]pyrimidin-7-yl]phenyl}-3-(trifluoromethyl)benzamide]"
> 10,16,–,"NC(=O)c1cnn2c(-c3cccc(NC(=O)c4cccc(C(F)(F)F)c4)c3)ccnc12 [Example 61, 7-(3-{[3-(trifluoromethyl)benzoyl]amino}phenyl)pyrazolo[1,5-a]pyrimidine-3-carboxamide]"
–,54,–,"N#Cc1c(N2CCNCC2)nn2c(-c3cccc(NC(=O)c4cccc(C(F)(F)F)c4)c3)ccnc12 [Example 62, N-[3-(3-cyano-2-piperazin-1-ylpyrazolo[1,5-a]pyrimidin-7-yl)phenyl]-3-(trifluoromethyl)benzamide]"
> 10,–,14,"N#Cc1cnn2c(-c3cccc(NC(=O)c4cccc(C(F)(F)F)c4)c3)ccnc12 [Example 63, N-[3-(3-cyanopyrazolo[1,5-a]pyrimidin-7-yl)phenyl]-3-(trifluoromethyl)benzamide]"
> 10,4,–,"CCOC(=O)c1c(C)nn2c(-c3cccc(NC(=O)c4ccc(C)c(C(F)(F)F)c4)c3)ccnc12 [Example 64, ethyl 2-methyl-7-(3-{[4-methyl-3-(trifluoromethyl)benzoyl]amino}phenyl)pyrazolo[1,5-a]pyrimidine-3-carboxylate]"
> 10,30,–,"Cc1ccc(C(=O)Nc2cccc(-c3ccnc4c(-c5ccccn5)cnn34)c2)cc1C(F)(F)F [Example 65, 4-methyl-N-[3-(3-pyridin-2-ylpyrazolo[1,5-a]pyrimidin-7-yl)phenyl]-3-(trifluoromethyl)benzamide]"

# Source: patent publication US20070219186A1, “Pyrazolo[1,5-A]pyrimidine derivatives and methods of use thereof” (priority 2006, published 2007)
